# Numbered stars: 1 amine (or outer) side, 2 acyl side, 3 side chain; on linkers, the order of the positions; unused ones are H or OH. Bridge positions count the residues as written; N and C are the ends. Square brackets hold non-standard residues; d marks the D form. Peptide text beside a SMILES is read from it. I, II: the chains in the order shown. * marks the point of attachment. Sebacoyl = O=C(CCCCCCCCC(=O)[*:2])[*:1]; 2Nal = N[C@@H](Cc1ccc2ccccc2c1)C(=O)O; Suberoyl = O=C(CCCCCCC(=O)[*:2])[*:1]; Adipoyl = O=C(CCCCC(=O)[*:2])[*:1]; Glutaryl = O=C(CCCC(=O)[*:2])[*:1]; dNMeOrn = CN[C@H](CCCN)C(=O)O; X3 = NC(=O)CCCC(=O)*
# Molecular target: human CXCR4 (Homo sapiens, UniProt P61073)
# Sequence (P61073 whole entry): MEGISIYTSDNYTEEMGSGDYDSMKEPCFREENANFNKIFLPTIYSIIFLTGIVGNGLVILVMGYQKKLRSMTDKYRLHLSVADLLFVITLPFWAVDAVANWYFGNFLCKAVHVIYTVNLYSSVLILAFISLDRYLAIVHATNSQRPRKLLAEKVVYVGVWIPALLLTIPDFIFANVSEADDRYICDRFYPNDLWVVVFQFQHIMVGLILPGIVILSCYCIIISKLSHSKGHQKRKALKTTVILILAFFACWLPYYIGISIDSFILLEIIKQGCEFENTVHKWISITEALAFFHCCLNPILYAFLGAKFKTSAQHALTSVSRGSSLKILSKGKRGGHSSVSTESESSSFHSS
# Experiment: Competitive receptor binding assay on Jurkat cells with 125I-CPCR4 as tracer
# Parameters: Jurkat cells that endogenously express the CXCR4 receptor; endogenous in cells; host or cells: Jurkat cells
# Settings: Table 10, dimers and monomers; read-out: IC50
# Protocol: For receptor binding assays cells were resuspended in PBS/0.2% BSA. A total of 200 μl of the suspension containing 400,000 Jurkat cells were incubated with 25 μl of the tracer solution (containing 3.1 kBq, approx. 0.1 nM) and 25 μl of the diluent or the competitor at different concentrations. […] After shaking for 2 h at room temperature, the incubation was terminated by centrifugation at 1300 rpm for 5 min. Cell pellets were washed once with cold PBS followed by a second centrifugation step. Cell bound radioactivity was determined by using a gamma counter. Experiments were repeated 2-3 times in triplicates. IC50 values of the compounds were calculated by nonlinear regression using GraphPad Prism (GraphPad Prism 4.0 Software, Inc., San Diego, Calif., USA). Each data point is the average of three determinations.
row,IC50,Compound
1,3.65 nM,CN1C(=O)[C@@H](Cc2ccc(O)cc2)NC(=O)CNC(=O)[C@H](Cc2ccc3ccccc3c2)NC(=O)[C@H](CCCN=C(N)N)NC(=O)[C@H]1CCCNC(=O)CCCCC(=O)NCCC[C@@H]1C(=O)N[C@@H](CCCN=C(N)N)C(=O)N[C@@H](Cc2ccc3ccccc3c2)C(=O)NCC(=O)N[C@H](Cc2ccc(O)cc2)C(=O)N1C [NMe-D-Orn n = 4] (I: cyclo([2Nal]G[dY][dNMeOrn]R) / II: cyclo([2Nal]G[dY][dNMeOrn]R); linker I:4-II:4 via Adipoyl)
2,2.26 nM,CN1C(=O)[C@@H](Cc2ccc(O)cc2)NC(=O)CNC(=O)[C@H](Cc2ccc3ccccc3c2)NC(=O)[C@H](CCCN=C(N)N)NC(=O)[C@H]1CCCNC(=O)CCCCCCCCC(=O)NCCC[C@@H]1C(=O)N[C@@H](CCCN=C(N)N)C(=O)N[C@@H](Cc2ccc3ccccc3c2)C(=O)NCC(=O)N[C@H](Cc2ccc(O)cc2)C(=O)N1C [NMe-D-Orn n = 8] (I: cyclo([2Nal]G[dY][dNMeOrn]R) / II: cyclo([2Nal]G[dY][dNMeOrn]R); linker I:4-II:4 via Sebacoyl)
3,37.9 nM,CN1C(=O)[C@@H](Cc2ccc(O)cc2)NC(=O)CNC(=O)[C@H](Cc2ccc3ccccc3c2)NC(=O)[C@H](CCCNC(=N)N)NC(=O)[C@H]1CCCNC(=O)C[C@H](NC(=O)CCCCCNC(=O)CN1CCN(CC(=O)O)CCN(CC(=O)O)CCN(CC(=O)O)CC1)C(=O)NCCC[C@@H]1C(=O)N[C@@H](CCCNC(=N)N)C(=O)N[C@@H](Cc2ccc3ccccc3c2)C(=O)NCC(=O)N[C@H](Cc2ccc(O)cc2)C(=O)N1C [NMe-D-Orn InDOTAAhxAsp]
4,38 nM,CN1C(=O)[C@@H](Cc2ccc(O)cc2)NC(=O)CNC(=O)[C@H](Cc2ccc3ccccc3c2)NC(=O)[C@H](CCCNC(=N)N)NC(=O)[C@H]1CCCNC(=O)CNC(=O)C[C@H](NC(=O)CCCCCNC(=O)CN1CCN(CC(=O)O)CCN(CC(=O)O)CCN(CC(=O)O)CC1)C(=O)NCC(=O)NCCC[C@@H]1C(=O)N[C@@H](CCCNC(=N)N)C(=O)N[C@@H](Cc2ccc3ccccc3c2)C(=O)NCC(=O)N[C@H](Cc2ccc(O)cc2)C(=O)N1C [NMe-D-Orn + Gly DOTAAhxAsp]
5,66.5 nM,CN1C(=O)[C@@H](Cc2ccc(O)cc2)NC(=O)CNC(=O)[C@H](Cc2ccc3ccccc3c2)NC(=O)[C@H](CCCNC(=N)N)NC(=O)[C@H]1CCCNC(=O)CCCC(N)=O [Monomer + Glutaric acid monoamide] (cyclo([2Nal]G[dY][dNMeOrn](X3)R))
6,92.1 nM,CN1C(=O)[C@@H](Cc2ccc(O)cc2)NC(=O)CNC(=O)[C@H](Cc2ccc3ccccc3c2)NC(=O)[C@H](CCCNC(=N)N)NC(=O)[C@H]1CCCNC(=O)C[C@H](NC(=O)CCCCCNC(=O)CN1CCN(CC(=O)O)CCN(CC(=O)O)CCN(CC(=O)O)CC1)C(=O)NCCC[C@@H]1C(=O)N[C@@H](CCCNC(=N)N)C(=O)N[C@@H](Cc2ccc3ccccc3c2)C(=O)NCC(=O)N[C@H](Cc2ccc(O)cc2)C(=O)N1C [NMe-D-Orn DOTAAhxAsp]
7,5.48 nM,CN1C(=O)[C@@H](Cc2ccc(O)cc2)NC(=O)CNC(=O)[C@H](Cc2ccc3ccccc3c2)NC(=O)[C@H](CCCN=C(N)N)NC(=O)[C@H]1CCCNC(=O)CNC(=O)CC(=O)NCC(=O)NCCC[C@@H]1C(=O)N[C@@H](CCCN=C(N)N)C(=O)N[C@@H](Cc2ccc3ccccc3c2)C(=O)NCC(=O)N[C@H](Cc2ccc(O)cc2)C(=O)N1C [NMe-D-Orn + Gly n = 1]

# Same assay, conditions: read-out: IC50 (affinity)
row,IC50,Compound
1,11.1 ± 3.4 nM,CN1C(=O)[C@@H](Cc2ccc(O)cc2)NC(=O)CNC(=O)[C@H](Cc2ccc3ccccc3c2)NC(=O)[C@H](CCCNC(=N)N)NC(=O)[C@H]1CCCNC(=O)CCCCCCCCCCCC(=O)NCCC[C@@H]1C(=O)N[C@@H](CCCNC(=N)N)C(=O)N[C@@H](Cc2ccc3ccccc3c2)C(=O)NCC(=O)N[C@H](Cc2ccc(O)cc2)C(=O)N1C [NMe-D-Orn n = 11]
2,4.42 nM,CN1C(=O)[C@@H](Cc2ccc(O)cc2)NC(=O)CNC(=O)[C@H](Cc2ccc3ccccc3c2)NC(=O)[C@H](CCCN=C(N)N)NC(=O)[C@H]1CCCNC(=O)CCCCC(=O)NCCC[C@@H]1C(=O)N[C@@H](CCCN=C(N)N)C(=O)N[C@@H](Cc2ccc3ccccc3c2)C(=O)NCC(=O)N[C@H](Cc2ccc(O)cc2)C(=O)N1C [NMe-D-Orn n = 4] (I: cyclo([2Nal]G[dY][dNMeOrn]R) / II: cyclo([2Nal]G[dY][dNMeOrn]R); linker I:4-II:4 via Adipoyl)
3,2.12 ± 0.9 nM,CN1C(=O)[C@@H](Cc2ccc(O)cc2)NC(=O)CNC(=O)[C@H](Cc2ccc3ccccc3c2)NC(=O)[C@H](CCCN=C(N)N)NC(=O)[C@H]1CCCNC(=O)CCCCCCCCC(=O)NCCC[C@@H]1C(=O)N[C@@H](CCCN=C(N)N)C(=O)N[C@@H](Cc2ccc3ccccc3c2)C(=O)NCC(=O)N[C@H](Cc2ccc(O)cc2)C(=O)N1C [NMe-D-Orn n = 8] (I: cyclo([2Nal]G[dY][dNMeOrn]R) / II: cyclo([2Nal]G[dY][dNMeOrn]R); linker I:4-II:4 via Sebacoyl)
4,4.28 ± 2.3 nM,CN1C(=O)[C@@H](Cc2ccc(O)cc2)NC(=O)CNC(=O)[C@H](Cc2ccc3ccccc3c2)NC(=O)[C@H](CCCNC(=N)N)NC(=O)[C@H]1CCCNC(=O)CCCC(=O)NCCC[C@@H]1C(=O)N[C@@H](CCCNC(=N)N)C(=O)N[C@@H](Cc2ccc3ccccc3c2)C(=O)NCC(=O)N[C@H](Cc2ccc(O)cc2)C(=O)N1C [NMe-D-Orn n = 3] (I: cyclo([2Nal]G[dY][dNMeOrn]R) / II: cyclo([2Nal]G[dY][dNMeOrn]R); linker I:4-II:4 via Glutaryl)
5,2.51 ± 0.7 nM,CN1C(=O)[C@@H](Cc2ccc(O)cc2)NC(=O)CNC(=O)[C@H](Cc2ccc3ccccc3c2)NC(=O)[C@H](CCCNC(=N)N)NC(=O)[C@H]1CCCNC(=O)CCCCCCC(=O)NCCC[C@@H]1C(=O)N[C@@H](CCCNC(=N)N)C(=O)N[C@@H](Cc2ccc3ccccc3c2)C(=O)NCC(=O)N[C@H](Cc2ccc(O)cc2)C(=O)N1C [NMe-D-Orn n = 6] (I: cyclo([2Nal]G[dY][dNMeOrn]R) / II: cyclo([2Nal]G[dY][dNMeOrn]R); linker I:4-II:4 via Suberoyl)

# Reference: patent US8614290B2, “Cancer imaging and treatment” (Technische Universitat Munchen, priority 2007, dated 2013)
